Test results taken from US20160175293A1, “PIM KINASE INHIBITOR COMBINATIONS” (priority 2013, published 2016).

What was measured:
[1] = tested on: MOLM-13; test: Cell Titer Glo viability, dose matrix, Chalice analysis; format: cell-based
Method: (§1) Compound stock was freshly prepared in the appropriate culture medium and manually added to the plates by electronic multichannel pipette in three replicates. […] The viability of cells was assessed after 72 hours of treatment by quantification of cellular ATP levels via Cell Titer Glo (Promega #G7571) according to the manufacturer's protocol. Plates were read on a luminescence plate reader (Victor X4, Perkin Elmer).
(§2) Each compound is diluted threefold times and the dashes below represent the threefold dilution between each number.

[2] = tested on: MV-4-11; test: as above; format: cell-based
Method: as §1, §2

[3] = tested on: KMS-12-BM; test: mouse xenograft model KMS-12-BM; format: in vivo; details: single agent Compound B

With `C[C@@H]1C[C@H](N)C[C@H](c2ccncc2NC(=O)c2ccc(F)c(-c3c(F)cccc3F)n2)C1` [Compound A, N-(4-((1R,3S,5S)-3-amino-5-methylcyclohexyl)pyridin-3-yl)-6-(2,6-difluorophenyl)-5-fluoropicolinamide] the “PK exposure at steady state” value (Day 14 (steady state), 200 mg to 350 mg dose) was “plateau”, the “PK exposure (Cmax AUC) dose proportionality” value (dose range of 70 mg-250 mg, Day 1) was “over proportional” and the “increase of exposure at 500 mg compared to 200 mg to 350 mg dose” value (steady state) was “about 2 fold”.
In the case of `CO[C@@H]1[C@H](N(C)C(=O)c2ccccc2)C[C@H]2O[C@]1(C)n1c3ccccc3c3c4c(c5c6ccccc6n2c5c31)C(=O)NC4` [PKC412, midostaurin], the single agent activity [1] is reported as “active” and the single agent activity [2] is reported as “active”.
With `Cc1nc(NC(=O)N2CCC[C@H]2C(N)=O)sc1-c1ccnc(C(C)(C)C(F)(F)F)c1` [Compound B, (S)-pyrrolidine-1,2-dicarboxylic acid 2-amide 1-({4-methyl-5-[2-(2,2,2-trifluoro-1,1-dimethyl-ethyl)-pyridin-4-yl]-thiazol-2-yl}-amide)] the anti-tumor activity [3] was “did not demonstrate in anti-tumor activity”.
